Tested on: E. amylovora 153N
Experiment: Fire blight on crabapples
Assay type: in vivo
Set-up: Blossom Incidence / Shoot Incidence: unit not given here
Details: for Blossom Incidence: mean of counts; for Canker Size / Shoot Incidence: Day 63
Method: A study of the bioefficacy of the various agrichemical compositions, including bioactive acid solutions and blends thereof with an antibiotic agrichemical, were evaluated to assess their bioefficacy against fire blight on crabapples. The study was conducted on 5 year old Snow Drift crabapple trees, with each of the compositions being applied to ten trees in two-subplots of five trees, four different times: at 100% bloom-day 1, a second application was made on day 4, a third on day 11 and a final treatment on day 19. The trees were inoculated with E. amylovora […] at a concentration of 4×10^6 cells per milliliter on day 1, following drying of the treatment, with the inoculation being repeated on day 13. Evaluation for fire blight was completed on 100 blossoms for each of the subplots on day 12, day 19 and day 27. Additionally, the incidence of shoot infection and the length of […] evaluated on day 63. The test compositions were prepared by forming solutions of the bioactive agents. Two different dilutions of the MI2 bioactive were evaluated, the first employing 94.46 ml/gallon (25 ml/l) of water (5 ppm of each metal) and the second 188.9 ml/gallon (50 ml/l) of water (10 ppm of each metal). […] Finally, copper hydroxide was diluted at a rate of 1 lb/gallon (119.8 g/l). Each of the compositions and blends were spray applied at a rate of 50 gallons (189.3 l) pre acre. The results are presented as the mean of the counts.

| SMILES | Blossom Incidence (Day 12, rate 5 lbs/a (2.27 kg/a)) | Blossom Incidence (Day 19, rate 5 lbs/a (2.27 kg/a)) | Blossom Incidence (Day 27, rate 5 lbs/a (2.27 kg/a)) | Canker Size (rate 5 lbs/a (2.27 kg/a)) [cm] | Shoot Incidence (rate 5 lbs/a (2.27 kg/a)) | Blossom Incidence (Day 12, rate 0.49 lb/a) | Blossom Incidence (Day 19, rate 0.49 lb/a) | Blossom Incidence (Day 27, rate 0.49 lb/a) | Canker Size (rate 0.49 lb/a) [cm] | Shoot Incidence (rate 0.49 lb/a) |
| --- | --- | --- | --- | --- | --- | --- | --- | --- | --- | --- |
| [Cu+2].[OH-].[OH-] [copper hydroxide] | 3.1 | 2.2 | 9.0 | 0.0 | 1.0 | – | – | – | – | – |
| [H]/N=C(/N)N[C@H]1[C@H](O)[C@@H](O)[C@H](O[C@@H]2O[C@@H](C)[C@](O)(C=O)[C@H]2O[C@@H]2O[C@@H](CO)[C@H](O)[C@@H](O)[C@@H]2NC)[C@@H](N/C(N)=N\[H])[C@@H]1O [streptomycin] | – | – | – | – | – | 1.8 | 4.8 | 3.09 | 0.0 | 1.2 |

Reference: patent publication US20080292721A1, “Bioactive acid agrichemical compositrions and use thereof” (priority 2007, published 2008)
